Like-named read-outs stand apart in the source and are kept apart here.
Test system: HeLa cells
Test: 2-AG accumulation assay using HeLa cells
Format: cell-based
Details: for Emax at 10 µM: Homo sapiens, HeLa cell homogenate, 2-AG accumulation relative to MAFP; for Ex. 5 % MAFP @10 μM: 10 μM compound
[1] = compound @10 μM (second of two columns with the same head), read-out: Ex. 5 % MAFP @10 μM (second column)
[2] = 2-AG relative to MAFP, HeLa homogenate
[3] = compound @10 μM as printed (first of two columns with the same head), read-out: Ex. 5 % MAFP @10 μM (first column)

Compound | Emax at 10 µM [1] | other results
CN(C)c1ccc(C(=O)N2CC(N3CCN(c4ncccn4)CC3)C2)cc1 [compound 28, N,N-Dimethyl-4-{[3-(4-pyrimidin-2-ylpiperazin-1-yl)azetidin-1-yl]carbonyl}aniline] | 82.2% | 
CC(C)(C)c1nc2ccc(C(=O)N3CC(N4CCN(c5ccccn5)CC4)C3)cc2o1 [Compound #209] |  | Ex. 5 % MAFP @ 1 μM (1 μM compound, 2-AG relative to MAFP, HeLa homogenate): 19.9 % MAFP; Ex. 5 % MAFP @10 μM [2]: 47.3 % MAFP
CC(C)n1c(C(F)(F)F)nc2cc(C(=O)N3CC(N4CCN(c5ncccn5)CC4)C3)ccc21 [compound 16, 1-(1-Methylethyl)-5-{[3-(4-pyrimidin-2-ylpiperazin-1-yl)azetidin-1-yl]carbonyl}-2-(trifluoromethyl)-1H-benzimidazole] | 91.5% | 
O=C(c1ccc(-c2ccc(F)cc2)cc1)N1CC(N2CCN(c3ncccn3)CC2)C1 [compound 9, 2-(4-{1-[(4′-Fluorobiphenyl-4-yl)carbonyl]azetidin-3-yl}piperazin-1-yl)pyrimidine] | 81% | 
O=C(c1ccc(C2CCCCC2)cc1)N1CC(N2CCN(c3ccccn3)CC2)C1 [compound 15, 1-{1-[(4-Cyclohexylphenyl)carbonyl]azetidin-3-yl}-4-pyridin-2-ylpiperazine] | 47.6% | 
O=C(c1ccc(C2CCCCC2)cc1)N1CC(N2CCN(c3nccs3)CC2)C1 [compound 6, 1-{1-[(4-Cyclohexylphenyl)carbonyl]azetidin-3-yl}-4-(1,3-thiazol-2-yl)piperazine] | 41.5% | Emax at 10 µM [3]: 24.3%
CCCc1cc2cc(C(=O)N3CC(N4CCN(c5ccccn5)CC4)C3)ccc2n1C [Compound #213] |  | Ex. 5 % MAFP @10 μM [2]: 61.1 % MAFP
O=C(c1ccc(-c2ccccc2)cc1)N1CC(N2CCN(c3nccs3)CC2)C1 [compound 36, 1-[1-(Biphenyl-4-ylcarbonyl)azetidin-3-yl]-4-(1,3-thiazol-2-yl)piperazine] | 91.3% | 
O=C(c1ccc(-c2ccccc2)c(F)c1)N1CC(N2CCN(c3ccccn3)CC2)C1 [compound 60, 1-{1-[(2-Fluorobiphenyl-4-yl)carbonyl]azetidin-3-yl}-4-pyridin-2-ylpiperazine] | 57.8% | Emax at 10 µM [3]: 28.2%
O=C(/C=C/c1ccc(SC(F)(F)F)cc1)N1CC(N2CCN(c3ccccn3)CC2)C1 [compound 41, 1-Pyridin-2-yl-4-{1-[(2E)-3-(4-[(trifluoromethyl)sulfanyl]phenyl}prop-2-enoyl]azetidin-3-yl}piperazine] | 66.8% | 
COc1ccc(-c2nc3cccc(C(=O)N4CC(N5CCN(c6ccccn6)CC5)C4)c3o2)cc1 [Compound #210] |  | Ex. 5 % MAFP @10 μM [2]: 79.5 % MAFP
O=C(Nc1ccc(C(=O)N2CC(N3CCN(c4ccccn4)CC3)C2)cc1)C1CCCCC1 [compound 27, N-(4-{[3-(4-Pyridin-2-ylpiperazin-1-yl)azetidin-1-yl]carbonyl}phenyl)cyclohexanecarboxamide] | 110% | Emax at 10 µM [3]: 66.2%
CC1(C)CCC(C)(C)c2cc(CCC(=O)N3CC(N4CCN(c5ccccn5)CC4)C3)ccc21 [compound 29, 1-Pyridin-2-yl-4-{1-[3-(5,5,8,8-tetramethyl-5,6,7,8-tetrahydronaphth-2-yl)propanoyl]azetidin-3-yl}piperazine] | 76.5% | 
CN(c1ccc(C(=O)N2CC(N3CCN(c4ccccn4)CC3)C2)cc1)C1CCCCC1 [Compound #1, N-Cyclohexyl-N-methyl-4-{[3-(4-pyridin-2-ylpiperazin-1-yl)azetidin-1-yl]carbonyl}aniline] | 70.5% | 
O=C(c1ccc(Cc2ccccc2)cc1)N1CC(N2CCN(c3ncccn3)CC2)C1 [compound 24, 2-(4-{1-[(4-Benzylphenyl)carbonyl]azetidin-3-yl}piperazin-1-yl)pyrimidine] | 81.9% | 
COc1ccc(-c2ccc(C(=O)N3CC(N4CCN(c5ncccn5)CC4)C3)cc2)cc1 [compound 5, 2-(4-{1-[(4′-Methoxybiphenyl-4-yl)carbonyl]azetidin-3-yl}piperazin-1-yl)pyrimidine] | 98.8% | 
CCN(CC)c1ccc(C(=O)N2CC(N3CCN(c4ccccn4)CC3)C2)cc1 [compound 37, N,N-Diethyl-4-{[3-(4-pyridin-2-ylpiperazin-1-yl)azetidin-1-yl]carbonyl}aniline] | 65.9% | Emax at 10 µM [3]: 32%
COc1cccc(-c2nc3cc(C(=O)N4CC(N5CCN(c6ccccn6)CC5)C4)ccc3o2)c1 [Compound #216] |  | Ex. 5 % MAFP @10 μM [2]: 86.9 % MAFP
O=C(c1ccc(-c2cccc(C(F)(F)F)c2)cc1)N1CC(N2CCN(c3ncccn3)CC2)C1 [compound 4, 2-[4-(1-{[3′-(Trifluoromethyl)biphenyl-4-yl]carbonyl}azetidin-3-yl)piperazin-1-yl]pyrimidine] | 112% | 
CN(c1ccccc1)c1ccc(C(=O)N2CC(N3CCN(c4ccccn4)CC3)C2)cc1 [compound 18, N-Methyl-N-phenyl-4-{[3-(4-pyridin-2-ylpiperazin-1-yl)azetidin-1-yl]carbonyl}aniline] | 66.2% | 

Compound | Emax at 10 µM [1] | other results
O=C(c1ccc(OCc2ccccc2)cc1)N1CC(N2CCN(c3ccccn3)CC2)C1 [compound 112, 1-(1-{[4-(Benzyloxy)phenyl]carbonyl}azetidin-3-yl)-4-pyridin-2-ylpiperazine] | 79.2% | 
N#Cc1cccnc1N1CCN(C2CN(C(=O)c3ccc(C4CCCCC4)cc3)C2)CC1 [Compound #21, 2-(4-{1-[(4-Cyclohexylphenyl)carbonyl]azetidin-3-yl}piperazin-1-yl)pyridine-3-carbonitrile] | 79.5% | 
O=C(c1cccc2c1Cc1ccccc1-2)N1CC(N2CCN(c3ccccn3)CC2)C1 [compound 96, 1-[1-(9H-Fluoren-1-ylcarbonyl)azetidin-3-yl]-4-pyridin-2-ylpiperazine] | 0% | 
O=C(c1ccc(-c2ccccc2)c(F)c1)N1CC(N2CCN(c3ncccn3)CC2)C1 [compound 26, 2-(4-{1-[(2-Fluorobiphenyl-4-yl)carbonyl]azetidin-3-yl}piperazin-1-yl)pyrimidine] | 125% | 
O=C(c1ccc(-c2ccccc2Cl)cc1)N1CC(N2CCN(c3ncccn3)CC2)C1 [compound 8, 2-(4-{1-[(2′-Chlorobiphenyl-4-yl)carbonyl]azetidin-3-yl}piperazin-1-yl)pyrimidine] | 58.3% | 
CCCn1ccc2cc(C(=O)N3CC(N4CCN(c5ccccn5)CC4)C3)ccc21 [compound 31, 1-Propyl-5-{[3-(4-pyridin-2-ylpiperazin-1-yl)azetidin-1-yl]carbonyl}-1H-indole] | 69.5% | 
O=C(c1ccc(Cc2ccccc2)cc1)N1CC(N2CCN(c3ccccn3)CC2)C1 [compound 30, 1-{1-[(4-Benzylphenyl)carbonyl]azetidin-3-yl}-4-pyridin-2-ylpiperazine] | 37.3% | Emax at 10 µM [3]: 34.7%
O=C1c2ccccc2-c2ccc(C(=O)N3CC(N4CCN(c5ccccn5)CC4)C3)cc21 [compound 59, 2-{[3-(4-Pyridin-2-ylpiperazin-1-yl)azetidin-1-yl]carbonyl}-9H-fluoren-9-one] | 39.7% | Emax at 10 µM [3]: 10.2%
O=C(c1ccc(N2CCCC2)cc1)N1CC(N2CCN(c3ncccn3)CC2)C1 [Compound #2, 2-(4-{1-[(4-Pyrrolidin-1-ylphenyl)carbonyl]azetidin-3-yl}piperazin-1-yl)pyrimidine] | 105% | 
O=C(c1ccc(-c2ccc(Cl)c(Cl)c2)cc1)N1CC(N2CCN(c3ncccn3)CC2)C1 [compound 11, 2-(4-{1-[(3′,4′-Dichlorobiphenyl-4-yl)carbonyl]azetidin-3-yl}piperazin-1-yl)pyrimidine] | 55.2% | 
O=C(c1cccc(-c2ccc(F)cc2)c1)N1CC(N2CCN(c3ccccn3)CC2)C1 [compound 52, 1-{1-[(4′-Fluorobiphenyl-3-yl)carbonyl]azetidin-3-yl}-4-pyridin-2-ylpiperazine] | 52.2% | Emax at 10 µM [3]: 28%
CC(C)Cc1cc2cc(C(=O)N3CC(N4CCN(c5ccccn5)CC4)C3)ccc2n1CC(C)C [Compound #212] |  | Ex. 5 % MAFP @10 μM [2]: 72.9 % MAFP
CC(C)(C)OC(=O)N1CCC(c2ccc(C(=O)N3CC(N4CCN(c5ccccn5)CC4)C3)cc2)CC1 [compound 122, tert-Butyl 4-(4-{[3-(4-pyridin-2-ylpiperazin-1-yl)azetidin-1-yl]carbonyl}phenyl)piperidine-1-carboxylate] | 67.8% | 
Cc1nc2cc(C(=O)N3CC(N4CCN(c5ncccn5)CC4)C3)ccc2n1-c1ccccc1 [compound 14, 2-Methyl-1-phenyl-5-{[3-(4-pyrimidin-2-ylpiperazin-1-yl)azetidin-1-yl]carbonyl}-1H-benzimidazole] | 106% | 
O=C(c1ccccc1)c1cccc(C(=O)N2CC(N3CCN(c4ccccn4)CC3)C2)c1 [compound 86, Phenyl(3-{[3-(4-pyridin-2-ylpiperazin-1-yl)azetidin-1-yl]carbonyl}phenyl)methanone] | 10.4% | 
O=C(c1ccc2nc(C3CCCCC3)oc2c1)N1CC(N2CCN(c3ncccn3)CC2)C1 [compound 10, 2-Cyclohexyl-6-{[3-(4-pyrimidin-2-ylpiperazin-1-yl)azetidin-1-yl]carbonyl}-1,3-benzoxazole] | 115% | Emax at 10 µM [3]: 97.8%
O=C(c1ccccc1)c1ccc(C(=O)N2CC(N3CCN(c4ccccn4)CC3)C2)cc1 [compound 74, Phenyl(4-{[3-(4-pyridin-2-ylpiperazin-1-yl)azetidin-1-yl]carbonyl}phenyl)methanone] | 29.5% | 
O=C(Cc1ccc(-c2ccccc2)cc1)N1CC(N2CCN(c3ccccn3)CC2)C1 [compound 88, 1-[1-(Biphenyl-4-ylacetyl)azetidin-3-yl]-4-pyridin-2-ylpiperazine] | 2.8% | 
O=C(c1ccc(OCc2ccccc2)cc1)N1CC(N2CCN(c3ncccn3)CC2)C1 [compound 111, 2-[4-(1-{[4-(Benzyloxy)phenyl]carbonyl}azetidin-3-yl)piperazin-1-yl]pyrimidine] | 106% | 
